We go through 13 compounds from publication PMC12750995, “Conformational Dynamics in the Cell Membrane Interactions of Bispecific Targeted Degrader Therapeutics” (Journal of Medicinal Chemistry, 2025).

Bounds are passed on as bounds.

Data set [1] in a line: in vitro. Particulars: human, pH 7.4, n = 3.
Procedure: Binding to the cell homogenate was determined at 0.1 μM for all compounds. A Rapid Equilibrium Dialysis device (Thermo Fisher, Waltham, Massachusetts) was used to dialyze the samples by adding 200 μL of the compound-spiked cell homogenate to one chamber and 350 μL of HBSS/HEPES to the other chamber. The cassette was incubated on an Eppendorf ThermoMixer C (Hamburg, Germany) at 900 rpm for 4 h at 37 °C.
Data set [2] concerns HEK293 cell homogenate. Kind of data set: Equilibrium dialysis binding to HEK293 cell homogenate (fraction unbound). The data set is classed as in vitro ADME. The following applies: for cell homogenate binding (bound-to-unbound concentration ratio) compared with matched compound: Figure 6G, 11 vs 9, 8 vs 14, 9 vs 16; for fold higher bound-to-unbound concentration ratio than compound 9: comparator compound 9. The method, then:
(§1) The unbound fraction of a selected series of PROTACs was determined through equilibrium dialysis against the cell homogenate. HEK293 cells (ATCC, Manassas, VA) were grown in Dulbecco’s modified Eagle’s medium (DMEM) supplemented with 10% fetal bovine serum (FBS) at 37 °C, 95% relative humidity, and 5% CO2. Cell pellets were harvested using 0.05% trypsin and centrifuged at 260g for 5 min. The cells were resuspended in Dulbecco’s phosphate buffer (DPBS), counted using a Luna II cell counter (Logos Biosystems, Anyang, South Korea) and centrifuged at 260g. The supernatant was discarded, and cell pellets were stored at −80 °C prior to cell homogenate preparation. On the day of the experiment, cell pellets were thawed and resuspended in Hank’s balanced salt solution (HBSS) buffered with 20 mM HEPES (pH 7.4) to a concentration of 10 × 10^6 cells/mL. The cell suspension was homogenized using ultrasonication for 10 s at 20% intensity while kept on ice.
(§2) Compound stability was assessed by adding the compound-spiked cell homogenate to an empty well in the dialysis cassette. At the end of the experiment, these concentrations were compared to identical control samples stored at 4 °C. Mass balance was calculated at the end of each experiment. Further, in all wells, two control compounds (atorvastatin and lopinavir) were included to ensure that the assay plate was functional. All compounds were tested in triplicate in one experiment. Compound 2 was only detected on the cell homogenate side, and thus, the concentration on the buffer side was set to half of the lower limit of quantification to allow calculation of an approximate cell homogenate binding.
(§3) Final samples were matrix matched by taking 1 part sample and 1 part blank cell homogenate or buffer. Proteins were precipitated using 1 part matrix matched sample and 3 parts acetonitrile supplemented with 0.3% formic acid (FA) and 5 nM verapamil (internal standard), and this was diluted 1:1 with Milli-Q prior to centrifugation at 2500g for 20 min. Compound concentrations in the supernatant were quantified using a reversed phase system with a Waters Acquity UPLC HSS T3 column (50 × 2.1 mm, 1.8 μm) in an Aquity UPLC connected to a Xevo TQ-XS mass spectrometer (Waters Corp., Milford, MA). The chromatographic run was done using solvent A (0.1% FA in Milli-Q) and solvent B (0.1% FA in acetonitrile Optima LC/MS grade (Fisher Scientific)) with isocratic conditions between 0 and 0.3 min (99.8% solvent A and 0.2% solvent B), a linear gradient between 0.3 and 1.3 min (from 0.2% to 95% solvent B), isocratic conditions between 1.3 and 1.8 min (95% solvent B), and equilibration back to start conditions between 1.8 and 2.3 min. Mass transitions, cone voltages, and collision energies can be found in Table S4.
Background: In equilibrium dialysis only unbound substance equilibrates across the membrane.

Assay in data set [3]: as above
The data set is classed as in vitro ADME. The following applies: human, pH 7.4; fraction unbound in HEK293 cell homogenate, 10 × 10^6 cells/mL, 0.1 μM, 4 h, 37 °C; read-out: fu,hom. The method, then: as §1, §2, §3

The test system of data set [4] is Caco-2 monolayer. Kind of data set: Caco-2 A-B passive permeability with preincubation, transporter-inhibited. The format is in vitro ADME. The following applies: recovery from donor and receiver compartments, 0-120 min. As to the method: (§4) Transepithelial transport of the compounds through a Caco-2 monolayer (ATCC, HTB-37) was determined in 14–18 days old monolayers in Costar 24-well cell culture cluster plates (polycarbonate membrane, 0.4 μm pore size). Chamber volumes were 200 and 800 μL on the apical and basolateral sides of the cell monolayers, respectively, and all incubations were performed with prewarmed buffers in an orbital shaking incubator at 480 rpm and 37 °C. Prior to the assay, cells were washed with HBSS supplemented with 25 mM HEPES (HBSS-HEPES), pH 7.4, to remove the culture medium. After 15 min of equilibration, the transepithelial electrical resistance (TEER) was determined to assess acceptance of the cell plates into the assay. A second measurement and a lucifer yellow leakage determination was carried out after performing all the transport experiments to monitor integrity of the cell monolayers throughout the study.
(§5) Before the permeability study, to minimize nonspecific binding of PROTACs to the cells and plates, the cells were preincubated with 10 μM compound solution on the apical (donor) side for 1 h, analogous to Muschong et al. Then, cells were washed twice with HBSS-MES pH 6.5 containing 1% BSA. Then, permeability in the absorptive direction (A–B, apical-to-basolateral) was studied over 120 min at a 10 μM test compound concentration. The compound solutions were freshly prepared from DMSO stock solutions diluted into HBSS supplemented with 25 mM MES, pH 6.5, containing efflux inhibitors (50 μM quinidine, 30 μM benzbromarone, and 20 μM sulfasalazine); the final solvent concentration was always 0.5%.
(§6) Samples from the donor side (10 μL) were drawn immediately after the addition of the test compound and after 45 and 120 min. The donor samples were diluted 1:10 in HBSS. From the receiver compartment, an amount of 100 μL was withdrawn after 45 and 120 min and replaced with fresh HBSS-HEPES, pH 7.4.
(§7) Upon completion of the study, all samples were quenched with 300 μL of acetonitrile and analyzed subsequently using UPLC/MS/MS. The permeability was determined as the appearance rate of the compound on the receiver side, in relation to donor concentration, according to eq 4 Papp=dQ/[(dt)(T)]×A/D where dQ/[(dt)(T)] is the slope of the permeation profile across the Caco-2 cell monolayers, A is the surface area of the Transwell insert (0.33 cm^2), and D is the concentration on the donor side. Following the permeability experiments, recovery from the donor and receiver compartments was calculated using eq 5 recovery(%)(0−120min)=CR120×VR+CR45×0.1+CD45×0.01+CD120×VD/D0×VD×100
A general note: Passage across Caco-2 layers is used to estimate intestinal permeability.

Assay in data set [5]: as above
The format is in vitro ADME. Particulars: human, Caco-2, with 50 μM quinidine, 30 μM benzbromarone, 20 μM sulfasalazine; Figure 3A grouping; read-out: Passive Caco-2 cell permeability group (high, moderate or low). As to the method:
as §4, §5, §6, §7

The compound `Cc1sc2c(c1C)C(c1ccc(Cl)cc1)=N[C@@H](CC(=O)NCCOCCNC(=O)COc1cccc3c1C(=O)N(C1CCC(=O)NC1=O)C3=O)c1nnc(C)n1-2` (stereo partly drawn) [Compound 16, 2-((6S)-4-(4-Chlorophenyl)-2,3,9-trimethyl-6H-thieno[3,2-f][1,2,4]triazolo[4,3-a][1,4]diazepin-6-yl)-N-(2-(2-(2-((2-(2,6-dioxopiperidin-3-yl)-1,3-dioxoisoindolin-4-yl)oxy)acetamido)ethoxy)ethyl)acetamide] came in with a fraction unbound at 4 h, 0.1 μM in data set [1] (HEK293 cell homogenate) of 0.5.
Still for that read-out and setting: then `Cc1sc2c(c1C)C(c1ccc(Cl)cc1)=N[C@@H](CC(=O)N1CCC(Oc3cccc4c3C(=O)N(C3CCC(=O)NC3=O)C4=O)C1)c1nnc(C)n1-2` (stereo partly drawn) [Compound 17, 4-((1-(2-((6S)-4-(4-Chlorophenyl)-2,3,9-trimethyl-6H-thieno[3,2-f][1,2,4]triazolo[4,3-a][1,4]diazepin-6-yl)acetyl)pyrrolidin-3-yl)oxy)-2-(2,6-dioxopiperidin-3-yl)isoindoline-1,3-dione], with 0.357.
As for `COc1cc2c(Oc3ccc(NC(=O)C4(C(=O)Nc5ccc(F)cc5)CC4)cc3F)ccnc2cc1OCCCCOCCCCOCC(=O)NC(C(=O)N1CC(O)CC1C(=O)NCc1ccc(-c2scnc2C)cc1)C(C)(C)C` (stereo not drawn) [Compound 1], the “fu,hom mass balance” value in data set [2] (equilibrium dialysis, HEK293 cell homogenate, 0.1 μM) came out at 118%. Also, in data set [3], the fraction unbound at 4 h, 0.1 μM turned out to be 0.011. For the same compound, the “Papp Recovery (%) (0-120 min)” value in data set [4] turned out to be 39%. In addition, the Papp A→B at 120 min, 10 μM in data set [5] is below 0.5 ×10⁻⁶ cm/s.
In data set [1] (HEK293 cell homogenate), `Cc1sc2c(c1C)C(c1ccc(Cl)cc1)=N[C@@H](CC(=O)N1CCN(c3cccc4c3C(=O)N(C3CCC(=O)NC3=O)C4=O)CC1)c1nnc(C)n1-2` (stereo partly drawn) [Compound 15, 4-(4-(2-((6S)-4-(4-Chlorophenyl)-2,3,9-trimethyl-6H-thieno[3,2-f][1,2,4]triazolo[4,3-a][1,4]diazepin-6-yl)acetyl)piperazin-1-yl)-2-(2,6-dioxopiperidin-3-yl)isoindoline-1,3-dione] came in with a fraction unbound at 4 h, 0.1 μM of 0.182.
Consider `Cc1sc2c(c1C)C(c1ccc(Cl)cc1)=N[C@@H](CC(=O)NCCCCCCCCNC(=O)COc1cccc3c1C(=O)N(C1CCC(=O)NC1=O)C3=O)c1nnc(C)n1-2` (stereo partly drawn) [Compound 8], for which the “cell homogenate binding (bound-to-unbound concentration ratio) compared with matched compound” value in data set [2] is given as “higher experimental binding than 14”. In addition, the “fold higher bound-to-unbound concentration ratio than compound 9” value in data set [2] (HEK293 cell homogenate) came out at 4.6 fold. In addition, the Papp A→B at 120 min, 10 μM in data set [5] was above 10 ×10⁻⁶ cm/s. This compound showed a fraction unbound at 4 h, 0.1 μM in data set [1] (HEK293 cell homogenate) of 0.133.
Consider `Cc1sc2c(c1C)C(c1ccc(Cl)cc1)=N[C@@H](CC(=O)NCCCCNC(=O)COc1cccc3c1C(=O)N(C1CCC(=O)NC1=O)C3=O)c1nnc(C)n1-2` (stereo partly drawn) [Compound 9], for which the “cell homogenate binding (bound-to-unbound concentration ratio) compared with matched compound” value in data set [2] is given as “higher cell homogenate binding than 16”. Besides, in data set [5], the Papp A→B at 120 min, 10 μM was below 0.5 ×10⁻⁶ cm/s. Also, the fraction unbound at 4 h, 0.1 μM in data set [1] (HEK293 cell homogenate) amounted to 0.411.
As to `Cc1ncsc1-c1ccc(CNC(=O)[C@H]2C[C@H](O)CN2C(=O)[C@@H](NC(=O)COCCOCCOCCNC(=O)C[C@@H]2N=C(c3ccc(Cl)cc3)c3c(sc(C)c3C)-n3c(C)nnc32)C(C)(C)C)cc1` [Compound 6], the Papp A→B at 120 min, 10 μM in data set [5] fell in the range of 0.5 to 10 ×10⁻⁶ cm/s. This compound also gave a fraction unbound at 4 h, 0.1 μM in data set [1] (HEK293 cell homogenate) of 0.242.
In the case of `COc1cc(-c2cn(C)c(=O)c3cnccc23)cc(OC)c1CN(C)CC(=O)NCCOCCOCCNc1cccc2c1C(=O)N(C1CCC(=O)NC1=O)C2=O` (stereo not drawn) [Compound 10], the “fold lower bound-to-unbound concentration ratio (membrane binding) than compound 7” value in data set [2] (HEK293 cell homogenate, comparator compound 7) was 5.3 fold. In data set [5], the Papp A→B at 120 min, 10 μM is below 0.5 ×10⁻⁶ cm/s. Further, in data set [1] (tissue homogenate), the fraction unbound at 4 h, 0.1 μM amounted to 0.557.
Regarding `Cc1sc2c(c1C)C(c1ccc(Cl)cc1)=N[C@@H](CC(=O)NC[C@@H]1CCC[C@H](CNc3cccc4c3C(=O)N(C3CCC(=O)NC3=O)C4=O)C1)c1nnc(C)n1-2` (mixture of isomers) [Compound 12, 2-((6S)-4-(4-Chlorophenyl)-2,3,9-trimethyl-6H-thieno[3,2-f][1,2,4]triazolo[4,3-a][1,4]diazepin-6-yl)-N-(((1RS,3SR)-3-(((2-(2,6-dioxopiperidin-3-yl)-1,3-dioxoisoindolin-4-yl)amino)methyl)cyclohexyl)methyl)acetamide], in data set [1] (HEK293 cell homogenate), the fraction unbound at 4 h, 0.1 μM was determined as 0.007.
With `Cc1ncsc1-c1ccc(CNC(=O)[C@@H]2C[C@@H](O)CN2C(=O)[C@@H](NC(=O)CCCCNC(=O)C[C@@H]2N=C(c3ccc(Cl)cc3)c3c(sc(C)c3C)-n3c(C)nnc32)C(C)(C)C)cc1` [Compound 11, (2S,4R)-1-((2S)-2-(5-(2-((6S)-4-(4-Chlorophenyl)-2,3,9-trimethyl-6H-thieno[3,2-f][1,2,4]triazolo[4,3-a][1,4]diazepin-6-yl)acetamido)pentanamido)-3,3-dimethylbutanoyl)-4-hydroxy-N-(4-(4-methylthiazol-5-yl)benzyl)pyrrolidine-2-carboxamide], the “cell homogenate binding (bound-to-unbound concentration ratio) compared with matched compound” value in data set [2] is “higher cell homogenate binding than the CRBN-binding 9”. Also, in data set [2] (HEK293 cell homogenate), the “fold higher bound-to-unbound concentration ratio than compound 9” value was found to be 3 fold. Moreover, the fraction unbound at 4 h, 0.1 μM in data set [1] (HEK293 cell homogenate) is 0.139.
For `Cc1sc2c(c1C)C(c1ccc(Cl)cc1)=N[C@@H](CC(=O)NCCCNc1cccc3c1C(=O)N(C1CCC(=O)NC1=O)C3=O)c1nnc(C)n1-2` (stereo partly drawn) [Compound 13, 2-((6S)-4-(4-Chlorophenyl)-2,3,9-trimethyl-6H-thieno[3,2-f][1,2,4]triazolo[4,3-a][1,4]diazepin-6-yl)-N-(3-((2-(2,6-dioxopiperidin-3-yl)-1,3-dioxoisoindolin-4-yl)amino)propyl)acetamide], the fraction unbound at 4 h, 0.1 μM in data set [1] (tissue homogenate) stood at 0.228.
Compound `Cc1sc2c(c1C)C(c1ccc(Cl)cc1)=N[C@@H](CC(=O)NCCOCCOCCNC(=O)COc1cccc3c1C(=O)N(C1CCC(=O)NC1=O)C3=O)c1nnc(C)n1-2` (stereo partly drawn) [Compound 14, 2-((6S)-4-(4-Chlorophenyl)-2,3,9-trimethyl-6H-thieno[3,2-f][1,2,4]triazolo[4,3-a][1,4]diazepin-6-yl)-N-(2-(2-(2-(2-((2-(2,6-dioxopiperidin-3-yl)-1,3-dioxoisoindolin-4-yl)oxy)acetamido)ethoxy)ethoxy)ethyl)acetamide] registered a fraction unbound at 4 h, 0.1 μM in data set [1] (HEK293 cell homogenate) of 0.432.
For `COc1cc(-c2cn(C)c(=O)c3cnccc23)cc(OC)c1CN(C)CC(=O)NCCCCCCCCNc1cccc2c1C(=O)N(C1CCC(=O)NC1=O)C2=O` (stereo not drawn) [Compound 7], the Papp A→B at 120 min, 10 μM in data set [5] was above 10 ×10⁻⁶ cm/s. Further, the fraction unbound at 4 h, 0.1 μM in data set [1] (HEK293 cell homogenate) was 0.19.
